A word on the pKd: it is the Kd on a negative log10 scale, so that one unit is a factor of ten. A higher pKd goes with a small Kd.

The values below come from patent US12251422B2, “Compositions and methods for treating neurological and other disorders” (Rush University Medical Center, priority 2018, dated 2025).

pKd: −log10 of the molar value.

One experiment concerns the target T1, cTLR2 protein (Mus musculus, UniProt Q9QUN7).
T1 construct: The cTLR2 (640-784 amino acids) tagged with c-myc was cloned in lenti vector; made in house; host or cells: HEK293 cells (lentiviral expression)
Briefly: Thermal shift assay of cTLR2 with TIDM peptides. The class given is binding. The conditions noted are these: 10 μM peptide. Here is the method:
Thermal shift assays were performed in an Applied Biosystems 7500 standard real-time thermal cycler machine as described before (52, 53). For each reaction, purified protein (0.5 μg to 1 μg) was added to 18 μL of thermal shift buffer provided with the kit, and 1-2 μL of dye. Reaction was set 96 well PCR plate in the dark and then placed in the thermal cycler machine using the following two-stage program [(25° C. for 2 mins) 1 cycle; ([…]) 70 cycles; auto increment 1° C. for both stages]. The filter was set at ROX with no quencher filter and no passive filter.

The target of experiment [1] is T2, C-terminal TIR domain of TLR2 protein (cTLR2) (Mus musculus, UniProt Q9QUN7).
T2 construct: The cTLR2 (640-784 amino acids) tagged with c-myc was cloned in lenti vector; made in house; host or cells: HEK293 cells (lentiviral expression)
T2 sequence (Q9QUN7 640-784): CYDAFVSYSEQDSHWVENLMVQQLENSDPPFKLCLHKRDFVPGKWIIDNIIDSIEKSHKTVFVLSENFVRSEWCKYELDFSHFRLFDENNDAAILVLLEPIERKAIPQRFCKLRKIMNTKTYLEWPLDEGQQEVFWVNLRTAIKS
Briefly: Surface plasmon resonance binding of TIDM peptides to cTLR2. Here is the method: TLR2 full-length construct (pLenti-cmyc-DDK/tlr2) was purchased from Origene. The cTLR2 (640-784 amino acids) tagged with c-myc was cloned in lenti vector using TOPO TA cloning kit (K5310-00; Life technologies). Briefly, a kozak sequence was incorporated in the upstream of C-terminal TIR domain of TLR2. Next, cTLR2 was cloned in lentivector followed by packaging in lentivirus using HEK293FT cells. After 48 h, media was collected and concentrated with Lenti-X Concentrator (Cat #631231; Clontech). This concentrated lentiviral sup was used for viral transduction. The cTLR2 protein was isolated from HEK293 cell lysate by passing through Myc affinity column. Purified protein was desalted and concentrated by using 10 kD molecular cut-off filtration system.
To analyze the binding of TLR2 with TIDM peptides, surface plasmon resonance (SPR) experiments were carried out using a Reichert 4SPR instrument (Reichert Technologies, Buffalo, NY). Binding assay was performed using a 500 kDa Carboxymethyl Dextran Gold Sensor Slide (Reichert Inc.) for capturing TLR2. Protein immobilization was at a flow rate of 30 μl/min in PBS for 3 min with 0.8 mg/mL solution of TLR2. For analyte association, different concentrations of wtTIDM and mTIDM peptides in PBS running buffer were injected for 2.5 min at a rate of 30 μl/min followed by a dissociation phase of 3 min. The sensor surface was regenerated after each dissociation cycle by allowing buffer to flow at 40 μl/min for a minimum of 15 min. Signals obtained for the TLR2-bound surface were subtracted by signals obtained for the reference cell according to standard procedure using the system software. The concentration dependence of the subtracted signal was analyzed to determine binding affinity of TLR2 with wtTIDM and mTIDM peptides.
Background: Surface plasmon resonance follows binding to a sensor surface in real time, without labels.

For another experiment, the system named is EAE mice. The experiment can be described thus: Experimental allergic encephalomyelitis (EAE) in C57/BL6 mice. The experiment is classed as in vivo, mouse. Conditions: 0.1 mg/kg body wt/d intranasal from 10 dpi. The text has this: FIG. 7 (A-V). The wtTIDM, but not mTIDM, peptide protects mice from experimental allergic encephalomyelitis (EAE) and collagen-induced arthritis (CIA). […] Mice (n=6 per group in two independent experiments) were scored daily. […] On 22 dpi, general motor activities were monitored using the Ethovision XT 13.0 Open Field Activity System (Noldus) (B, heat-map images representing overall motor activities; C, distance travelled; D, rearing; E, velocity; F, acceleration) and rotorod (G). Foot print analysis (H, stride length; I, print length; J, sway length; K, toe spread) was also performed, L) CIA was induced in male DBA/1J mice by bovine type II collagen immunization and from 29 dpi, mice were treated with wtTIDM and mTIDM peptides (1 mg/kg body wt/d) via i.p. injection. Mice (n=6 per group in two independent experiments) were scored daily. […] On 60 dpi, general motor activities were monitored by Ethovision System (M, heat-map images representing overall motor activities; N, distance travelled; O, rearing; P, velocity), rotorod (Q) and grip strength (R). Foot print analysis (S, stride length; T, print length; U, sway length; V, toe spread) was also performed. Six mice (n=6 per group) were used in two independent experiments. ap<0.001 & bp<0.05 vs control; cp<0.001 & dp<0.05 vs EAE or CIA by two-sample t-tests.
FIG. 25 (A-D). Footprint analysis of EAE mice after treatment with wtTIDM and mTIDM peptides. On the walking track, we applied white paper strips and obtained the footprints of mice of different groups (A, control; B, EAE; C, EAE+wtTIDM; D, EAE+mTIDM) on paper using black ink. A total of 30-40 steps for each group were determined. Four different footprint measurements, viz., stride length (SL), print length (PL), sway length (SWL), and toe spread (TS) were calculated in centimeters from the recorded prints of mice. While SL refers the distance between the front edge of two consecutive prints of the same paw, SWL refers the distance between the paws perpendicular to the distance of travel and PL indicates the measurement of length of print area. […]

T1 sequence (Q9QUN7 640-784): as above

On to `CC[C@H](C)[C@H](NC(=O)[C@H](CCCCN)NC(=O)[C@@H](NC(=O)[C@H](CCC(N)=O)NC(=O)[C@H](CCCNC(=N)N)NC(=O)[C@@H](N)CC(=O)O)[C@@H](C)CC)C(=O)N[C@@H](Cc1c[nH]c2ccccc12)C(=O)N[C@@H](Cc1ccccc1)C(=O)N[C@@H](CCC(N)=O)C(=O)N[C@@H](CC(N)=O)C(=O)N[C@@H](CCCNC(=N)N)C(=O)N[C@@H](CCCNC(=N)N)C(=O)N[C@@H](CCSC)C(=O)N[C@@H](CCCCN)C(=O)N[C@@H](Cc1c[nH]c2ccccc12)C(=O)N[C@@H](CCCCN)C(=O)N[C@@H](CCCCN)C(=O)N1CCC[C@H]1C(=O)NCC(=O)N[C@@H](C)C(=O)N[C@@H](Cc1c[nH]cn1)C(=O)N[C@@H](CCC(N)=O)C(=O)N[C@@H](CCCCN)C(=O)O` [wtTIDM, drqikiwfqnrrmkwkkPGAHQK], for which the “shift (ΔTm) of melting temperature of cTLR2” value on cTLR2 protein amounted to 4.96 °C. This compound also had a negative-log Kd (pKd) in experiment [1] of 5.10. Moreover, in experiment [1] (ratio of Kd values), the “affinity for cTLR2 stronger than mTIDM” value was “approximately 2.5 times”. Also, the “clinical symptoms of EAE” value in the experiment with EAE mice is “strongly inhibited”. Moreover, in the experiment with EAE mice (22 dpi), the “locomotor activities and footprints in EAE mice” value is “improved”.
On to `CC[C@H](C)[C@H](NC(=O)[C@H](CCCCN)NC(=O)[C@@H](NC(=O)[C@H](CCC(N)=O)NC(=O)[C@H](CCCNC(=N)N)NC(=O)[C@@H](N)CC(=O)O)[C@@H](C)CC)C(=O)N[C@@H](Cc1c[nH]c2ccccc12)C(=O)N[C@@H](Cc1ccccc1)C(=O)N[C@@H](CCC(N)=O)C(=O)N[C@@H](CC(N)=O)C(=O)N[C@@H](CCCNC(=N)N)C(=O)N[C@@H](CCCNC(=N)N)C(=O)N[C@@H](CCSC)C(=O)N[C@@H](CCCCN)C(=O)N[C@@H](Cc1c[nH]c2ccccc12)C(=O)N[C@@H](CCCCN)C(=O)N[C@@H](CCCCN)C(=O)N1CCC[C@H]1C(=O)NCC(=O)N[C@@H](Cc1c[nH]c2ccccc12)C(=O)N[C@@H](Cc1c[nH]cn1)C(=O)N[C@@H](CCC(N)=O)C(=O)N[C@@H](CC(=O)O)C(=O)O` [mTIDM, drqikiwfqnrrmkwkkPGWHQD], for which the “shift (ΔTm) of melting temperature of cTLR2” value on cTLR2 protein amounted to 0.87 °C. The pKd in experiment [1] was 4.72. In the experiment on EAE mice, the “clinical symptoms of EAE” value is “had no effect”.
